In patent publication US9682995B2, “Amino-substituted isothiazoles” (BAYER PHARMA AKTIENGESELLSCHAFT, priority 2013, dated 2017):

Experiments:
Experiment in all cases: Kinase Profiling (KINOMEscan)
Type in all cases: binding
[1] = target: 456 kinases (of these 395 non-mutant kinases) (Homo sapiens, UniProt O00141); details: SGK; 10 μM
[2] = target: 456 kinases (of these 395 non-mutant kinases) (Homo sapiens, UniProt Q13188); details: MST2; 10 μM
[3] = target: 456 kinases (of these 395 non-mutant kinases) (Homo sapiens, UniProt P68400); details: CSNK2A1; 10 μM
[4] = target: 456 kinases (of these 395 non-mutant kinases) (Homo sapiens, UniProt Q15139); details: PRKD1; 10 μM
[5] = target: 456 kinases (of these 395 non-mutant kinases) (Homo sapiens, UniProt Q7KZI7); details: MARK2; 10 μM
[6] = target: 456 kinases (of these 395 non-mutant kinases) (Homo sapiens, UniProt P42336, H1047Y); details: PIK3CA(H1047Y); 10 μM
[7] = target: 456 kinases (of these 395 non-mutant kinases) (Homo sapiens, UniProt Q08345); details: DDR1; 10 μM
Sequence of 456 kinases (of these 395 non-mutant kinases) (Homo sapiens, UniProt Q08345) (Q08345 19-913 limits assumed, change not shown): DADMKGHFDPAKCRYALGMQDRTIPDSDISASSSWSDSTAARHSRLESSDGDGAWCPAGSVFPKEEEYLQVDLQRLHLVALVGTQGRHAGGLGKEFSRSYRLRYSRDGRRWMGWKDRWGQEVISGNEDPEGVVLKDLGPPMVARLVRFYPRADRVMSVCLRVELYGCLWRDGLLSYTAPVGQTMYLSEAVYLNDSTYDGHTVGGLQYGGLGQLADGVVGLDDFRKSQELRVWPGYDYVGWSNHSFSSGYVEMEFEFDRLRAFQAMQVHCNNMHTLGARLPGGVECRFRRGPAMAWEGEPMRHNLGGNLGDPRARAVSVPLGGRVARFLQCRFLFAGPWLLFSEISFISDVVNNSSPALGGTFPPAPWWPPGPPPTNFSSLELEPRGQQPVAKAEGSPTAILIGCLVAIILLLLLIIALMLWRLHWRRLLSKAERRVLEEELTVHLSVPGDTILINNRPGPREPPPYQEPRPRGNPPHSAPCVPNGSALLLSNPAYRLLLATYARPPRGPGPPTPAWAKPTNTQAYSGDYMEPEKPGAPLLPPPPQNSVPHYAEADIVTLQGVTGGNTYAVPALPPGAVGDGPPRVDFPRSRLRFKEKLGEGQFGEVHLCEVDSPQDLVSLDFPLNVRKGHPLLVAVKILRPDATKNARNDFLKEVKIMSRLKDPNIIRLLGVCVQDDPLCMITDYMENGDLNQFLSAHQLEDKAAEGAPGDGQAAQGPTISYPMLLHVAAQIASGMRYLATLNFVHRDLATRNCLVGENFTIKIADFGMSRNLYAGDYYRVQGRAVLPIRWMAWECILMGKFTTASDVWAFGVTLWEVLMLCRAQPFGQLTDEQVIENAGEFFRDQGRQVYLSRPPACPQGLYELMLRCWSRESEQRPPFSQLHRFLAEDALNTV

[8] = target: 456 kinases (of these 395 non-mutant kinases) (Homo sapiens, UniProt P49761); details: CLK3; 10 μM
[9] = target: 456 kinases (of these 395 non-mutant kinases) (Homo sapiens, UniProt Q9UEE5); details: DRAK1; 10 μM
[10] = target: 456 kinases (of these 395 non-mutant kinases) (Homo sapiens, UniProt P53355); details: DAPK1; 10 μM
[11] = target: 456 kinases (of these 395 non-mutant kinases) (Homo sapiens, UniProt Q9UL54); details: TAOK2; 10 μM
[12] = target: 456 kinases (of these 395 non-mutant kinases) (Homo sapiens, UniProt Q14004); details: CDC2L5; 10 μM
[13] = target: 456 kinases (of these 395 non-mutant kinases) (Homo sapiens, UniProt P00519, F317L); details: 10 μM
[14] = target: 456 kinases (of these 395 non-mutant kinases) (Homo sapiens, UniProt O76039); details: CDKL5; 10 μM
[15] = target: 456 kinases (of these 395 non-mutant kinases) (Homo sapiens, UniProt P53778); details: p38-gamma; 10 μM
[16] = target: 456 kinases (of these 395 non-mutant kinases) (Homo sapiens, UniProt O75385); details: ULK1; 10 μM
[17] = target: 456 kinases (of these 395 non-mutant kinases) (Homo sapiens, UniProt Q6P3R8); details: NEK5; 10 μM
[18] = target: 456 kinases (of these 395 non-mutant kinases) (Homo sapiens, UniProt P11802); details: 10 μM
Sequence of 456 kinases (of these 395 non-mutant kinases) (Homo sapiens, UniProt P11802) (P11802 2-303 limits assumed, change not shown): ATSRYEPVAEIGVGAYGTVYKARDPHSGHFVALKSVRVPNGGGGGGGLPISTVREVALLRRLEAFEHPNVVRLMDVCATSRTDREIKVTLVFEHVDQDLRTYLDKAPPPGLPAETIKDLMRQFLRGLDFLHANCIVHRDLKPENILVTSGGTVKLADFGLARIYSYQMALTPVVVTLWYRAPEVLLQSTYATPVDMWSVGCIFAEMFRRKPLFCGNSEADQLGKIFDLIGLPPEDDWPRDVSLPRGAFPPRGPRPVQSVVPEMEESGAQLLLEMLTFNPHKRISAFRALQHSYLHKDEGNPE

[19] = target: 456 kinases (of these 395 non-mutant kinases) (Homo sapiens, UniProt Q9H4B4); details: PLK3; 10 μM
[20] = target: 456 kinases (of these 395 non-mutant kinases) (Homo sapiens, UniProt P54756); details: EPHA5; 10 μM
Sequence of 456 kinases (of these 395 non-mutant kinases) (Homo sapiens, UniProt P54756) (P54756 25-1037 limits assumed, change not shown): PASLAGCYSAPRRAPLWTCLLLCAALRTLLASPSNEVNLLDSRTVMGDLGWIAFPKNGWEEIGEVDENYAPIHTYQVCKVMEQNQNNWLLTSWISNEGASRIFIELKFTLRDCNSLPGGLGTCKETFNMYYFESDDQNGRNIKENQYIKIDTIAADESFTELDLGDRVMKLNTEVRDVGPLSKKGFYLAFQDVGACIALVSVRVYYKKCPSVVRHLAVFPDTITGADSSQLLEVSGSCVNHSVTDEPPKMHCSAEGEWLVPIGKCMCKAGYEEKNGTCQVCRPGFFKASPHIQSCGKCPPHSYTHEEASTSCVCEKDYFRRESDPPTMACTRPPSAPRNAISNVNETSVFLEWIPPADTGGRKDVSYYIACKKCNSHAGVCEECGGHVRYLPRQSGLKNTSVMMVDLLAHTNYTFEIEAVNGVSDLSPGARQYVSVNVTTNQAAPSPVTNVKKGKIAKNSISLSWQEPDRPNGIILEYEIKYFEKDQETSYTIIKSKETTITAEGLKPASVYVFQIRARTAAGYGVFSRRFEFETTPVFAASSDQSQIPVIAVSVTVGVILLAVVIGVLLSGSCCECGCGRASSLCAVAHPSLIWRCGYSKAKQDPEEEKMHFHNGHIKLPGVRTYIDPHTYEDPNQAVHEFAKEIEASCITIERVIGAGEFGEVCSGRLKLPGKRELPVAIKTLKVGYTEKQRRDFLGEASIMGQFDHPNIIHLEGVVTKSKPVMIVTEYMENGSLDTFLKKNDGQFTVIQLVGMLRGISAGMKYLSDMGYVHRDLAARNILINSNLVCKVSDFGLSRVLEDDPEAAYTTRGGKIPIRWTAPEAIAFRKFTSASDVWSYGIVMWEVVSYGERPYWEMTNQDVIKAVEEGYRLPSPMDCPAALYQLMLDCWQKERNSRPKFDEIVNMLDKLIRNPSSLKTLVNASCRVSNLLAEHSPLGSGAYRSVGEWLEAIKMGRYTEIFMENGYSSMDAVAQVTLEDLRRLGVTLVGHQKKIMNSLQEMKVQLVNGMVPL

[21] = target: 456 kinases (of these 395 non-mutant kinases) (Homo sapiens, UniProt P53350); details: PLK1; 10 μM
Sequence of 456 kinases (of these 395 non-mutant kinases) (Homo sapiens, UniProt P53350) (P53350 2-603 limits assumed, change not shown): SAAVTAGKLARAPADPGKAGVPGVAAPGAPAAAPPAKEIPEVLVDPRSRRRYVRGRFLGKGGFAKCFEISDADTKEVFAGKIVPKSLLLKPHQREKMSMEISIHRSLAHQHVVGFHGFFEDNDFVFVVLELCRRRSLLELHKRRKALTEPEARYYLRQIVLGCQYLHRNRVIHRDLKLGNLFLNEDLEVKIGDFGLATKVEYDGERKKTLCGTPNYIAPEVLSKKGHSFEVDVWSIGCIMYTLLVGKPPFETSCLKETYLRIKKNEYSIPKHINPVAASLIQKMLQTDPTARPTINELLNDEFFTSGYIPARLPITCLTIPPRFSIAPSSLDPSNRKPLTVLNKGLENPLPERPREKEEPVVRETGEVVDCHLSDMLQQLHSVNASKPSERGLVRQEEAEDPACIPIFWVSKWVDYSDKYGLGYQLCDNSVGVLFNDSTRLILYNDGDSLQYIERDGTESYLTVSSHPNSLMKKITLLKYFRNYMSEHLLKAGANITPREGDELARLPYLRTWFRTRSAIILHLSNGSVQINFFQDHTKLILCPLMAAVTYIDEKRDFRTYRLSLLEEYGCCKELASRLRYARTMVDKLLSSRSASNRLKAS

[22] = target: 456 kinases (of these 395 non-mutant kinases) (Homo sapiens, UniProt P30291); details: WEE1; 10 μM
[23] = target: 456 kinases (of these 395 non-mutant kinases) (Homo sapiens, UniProt Q9UQ88); details: CDC2L2; 10 μM
[24] = target: 456 kinases (of these 395 non-mutant kinases) (Homo sapiens, UniProt P42679); details: CTK; 10 μM
[25] = target: 456 kinases (of these 395 non-mutant kinases) (Homo sapiens, UniProt Q9UKE5); details: TNIK; 10 μM
[26] = target: 456 kinases (of these 395 non-mutant kinases) (Homo sapiens, UniProt P00519, E255K); details: ABL1(E255K)-phosphorylated; 10 μM
[27] = target: 456 kinases (of these 395 non-mutant kinases) (Homo sapiens, UniProt P49841); details: GSK3B; 10 μM
[28] = target: 456 kinases (of these 395 non-mutant kinases) (Homo sapiens, UniProt Q06187); details: BTK; 10 μM
Sequence of 456 kinases (of these 395 non-mutant kinases) (Homo sapiens, UniProt Q06187) (Q06187 2-659 limits assumed, change not shown): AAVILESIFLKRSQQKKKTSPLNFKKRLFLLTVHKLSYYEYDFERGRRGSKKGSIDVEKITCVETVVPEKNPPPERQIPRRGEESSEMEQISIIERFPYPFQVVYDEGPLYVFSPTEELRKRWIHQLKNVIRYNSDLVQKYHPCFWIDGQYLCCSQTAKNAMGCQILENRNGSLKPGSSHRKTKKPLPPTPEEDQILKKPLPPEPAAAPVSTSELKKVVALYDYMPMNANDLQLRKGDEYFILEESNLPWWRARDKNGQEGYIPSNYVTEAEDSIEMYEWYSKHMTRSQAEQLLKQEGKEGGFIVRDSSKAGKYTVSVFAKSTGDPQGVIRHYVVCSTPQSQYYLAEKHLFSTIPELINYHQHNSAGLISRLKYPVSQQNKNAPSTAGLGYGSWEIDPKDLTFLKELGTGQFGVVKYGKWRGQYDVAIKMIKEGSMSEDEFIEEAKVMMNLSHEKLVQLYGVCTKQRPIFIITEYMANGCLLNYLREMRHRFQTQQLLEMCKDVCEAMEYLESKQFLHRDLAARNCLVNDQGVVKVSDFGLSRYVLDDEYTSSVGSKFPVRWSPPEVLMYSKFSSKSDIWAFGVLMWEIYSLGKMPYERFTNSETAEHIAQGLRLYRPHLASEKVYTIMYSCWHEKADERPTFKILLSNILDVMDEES

[29] = target: 456 kinases (of these 395 non-mutant kinases) (Homo sapiens, UniProt O43353); details: RIPK2; 10 μM
[30] = target: 456 kinases (of these 395 non-mutant kinases) (Homo sapiens, UniProt P80192); details: MLK1; 10 μM
[31] = target: 456 kinases (of these 395 non-mutant kinases) (Homo sapiens, UniProt P48736); details: PIK3CG; 10 μM
[32] = target: 456 kinases (of these 395 non-mutant kinases) (Homo sapiens, UniProt P24941); details: CDK2; 10 μM

## CCc1ccccc1NC(=O)c1c(C)nsc1Nc1cnc2cc(F)ccc2n1 [Example 20, N-(2-Ethylphenyl)-5-[(6-fluoroquinoxalin-2-yl)amino]-3-methyl-1,2-thiazole-4-carboxamide]
[1]
  % Ctrl @ 10 μM: 100 % Ctrl
[2]
  % Ctrl @ 10 μM: 100 % Ctrl
[3]
  % Ctrl @ 10 μM: 85 % Ctrl
[4]
  % Ctrl @ 10 μM: 88 % Ctrl
[5]
  % Ctrl @ 10 μM: 83 % Ctrl
[6]
  % Ctrl @ 10 μM: 100 % Ctrl
[7]
  % Ctrl @ 10 μM: 77 % Ctrl
[8]
  % Ctrl @ 10 μM: 74 % Ctrl
[9]
  % Ctrl @ 10 μM: 100 % Ctrl
[10]
  % Ctrl @ 10 μM: 88 % Ctrl
[11]
  % Ctrl @ 10 μM: 100 % Ctrl
[12]
  % Ctrl @ 10 μM: 100 % Ctrl
[13]; ABL1(F317L)-nonphosphorylated
  % Ctrl @ 10 μM: 100 % Ctrl
[13]; ABL1(F317L)-phosphorylated
  % Ctrl @ 10 μM: 100 % Ctrl
[14]
  % Ctrl @ 10 μM: 100 % Ctrl
[15]
  % Ctrl @ 10 μM: 58 % Ctrl
[16]
  % Ctrl @ 10 μM: 100 % Ctrl
[17]
  % Ctrl @ 10 μM: 100 % Ctrl
[18]; CDK4-cyclinD1
  % Ctrl @ 10 μM: 85 % Ctrl
[18]; CDK4-cyclinD3
  % Ctrl @ 10 μM: 93 % Ctrl
[19]
  % Ctrl @ 10 μM: 92 % Ctrl
[20]
  % Ctrl @ 10 μM: 99 % Ctrl
[21]
  % Ctrl @ 10 μM: 87 % Ctrl
[22]
  % Ctrl @ 10 μM: 100 % Ctrl
[23]
  % Ctrl @ 10 μM: 85 % Ctrl
[24]
  % Ctrl @ 10 μM: 61 % Ctrl
[25]
  % Ctrl @ 10 μM: 100 % Ctrl
[26]
  % Ctrl @ 10 μM: 100 % Ctrl
[27]
  % Ctrl @ 10 μM: 100 % Ctrl
[28]
  % Ctrl @ 10 μM: 98 % Ctrl
[29]
  % Ctrl @ 10 μM: 66 % Ctrl
[30]
  % Ctrl @ 10 μM: 100 % Ctrl
[31]
  % Ctrl @ 10 μM: 99 % Ctrl
[32]
  % Ctrl @ 10 μM: 100 % Ctrl
